Assay results reported in patent publication US20110256613A1, “Designer proton-channel transgenic algae for photobiological hydrogen production” (priority 2006, published 2011).

Assays:
[1] = test system: photosystem II (PSII) water-splitting complex in algal cells; conditions: cited from earlier work
[2] = test system: algal system; test: Competitive inhibition of photosynthetic H2 production by CO2; assay type: cell-based
Description: (2). Competitive inhibition of photosynthetic H2 production by CO2. […] This inhibition of H2 evolution by CO2 has been characterized in experimental studies at ORNL. […] Therefore, unless the alga is genetically reengineered to control the Calvin cycle activity, photosynthetic H2 production would require a nearly CO2-free environment.

[3] = test system: photosystem II (PSII); conditions: addition of HCO3− to HCO3−-depleted samples; cited from earlier work
[4] = test system: algal H2 production; test: Competitive inhibition of photosynthetic H2 production by O2; assay type: cell-based
Description: (§1) (4). Competitive drainage of electrons by O2 in algal H2 production. We have recently discovered a new O2 sensitivity in algal H2 production that is distinct from the O2 sensitivity of hydrogenase per se. This O2 sensitivity is apparently linked to the photosynthetic H2 production pathway that is coupled to proton translocation across the thylakoid membrane. […] This inhibition is likely due to the background O2, which apparently serves as a terminal electron acceptor in competition with the H2-production pathway for photosynthetically generated electrons from water splitting. The Rubisco enzyme of the Calvin cycle is known to be also an oxygenase in addition to its carboxylase activity. […] That is, the drainage of electrons by O2 is likely to occur at the point of Rubisco, which is one of the key enzymes of the Calvin cycle. This competitive inhibition of H2 production by O2 is much more of a problem than the traditionally known O2 sensitivity of the hydrogenase per se. […] The competitive inhibition of H2 production by O2 is about 10 times more sensitive to O2 than the traditionally known O2 sensitivity of hydrogenase. The drainage of electrons by O2 in competition with the Fd/hydrogenase H2 production pathway is 10 time more sensitive to O2 than the O2 sensitivity of the hydrogenase. […]

[5] = test system: algal hydrogenase; test: O2 sensitivity of hydrogenase per se; assay type: biochemical
Description: as §1

N#CC(C#N)=NNc1cccc(Cl)c1 [CCCP, carbonyl cyanide m-chlorophenylhydrazone]
side effects on photosynthetic activity (ADRY effect) [1]: undesirable side effects

O=C=O [CO2, carbon dioxide]
steady-state H2 photoevolution after CO2 injection ([2]; injection of 58 ppm CO2): inhibited to nearly zero | CO2 concentration to which the algal system is sensitive ([2]; lowest concentration, H2 photoevolution): 30 ppm

O=C(O)O [HCO3^−, Bicarbonate]
stimulation of PSII electron-transport activity [3]: 6- to 7 fold

O=O [O2]
O2 concentration that inhibits photosynthetic H2 production ([4]; lowest inhibiting concentration): 500-1000 ppm | O2 sensitivity of competitive inhibition of H2 production relative to O2 sensitivity of hydrogenase ([4]; ratio versus hydrogenase O2 sensitivity): about 10 times | O2 concentration at which algal hydrogenase is still active [5]: 5000 ppm
